The source of these data is EP0770681A2, “T cell epitopes of the major allergens from ambrosia artemisiifolia” (IMMULOGIC PHARMACEUTICAL CORPORATION, priority 1992, dated 1993).

No end group written: not given here.

Data set [1] concerns Amb a I.1 stimulated T cell line plus APC. As to the kind of experiment: assessment of peptide toxicity in Amb a I.1 primed secondary T cell culture. The class given is cell-based, human. The method, then: This could reflect a potential toxic effect of the peptides in the T cell assays. To investigate this possibility, an assay was conducted to determine the ability of the peptides to inhibit T cell proliferation. Inhibition was defined as proliferation of a T cell line in response to the peptide which was less than half the proliferation of media control T cell lines plus autologous EBV transformed antigen presenting cells. […]

For data set [2], the system named is basophils present in heparinized whole blood. As to the kind of experiment: histamine release assay. The class given is cell-based, human. The settings on record: blood of ragweed-allergic patient #1273, similar in seven other patients; Amb a I.1 from 10 µg/ml in 10-fold dilutions, peptides 50 µg/ml to 0.08 µg/ml. On the procedure: The histamine release assay used for these studies is based on the detection of an acylated derivative of histamine using a specific monoclonal antibody (Morel, A.M. and Delaage, M.A. (1988) J. Allergy Clin. Immunol. 82:646-654). The assay was performed in two steps: 1) the release of histamine from basophils present in heparinized whole blood in the presence of different concentrations of protein or peptide; and 2) the assay of histamine present in the supernatants of the release reactions following cell removal by centrifugation. The reagents for this second step are available commercially as a competitive radioimmunoassay from AMAC Inc. (Westbrook, ME).
Heparinized whole blood was drawn from ragweed allergic patients. […] The tubes were then centrifuged in a microfuge at 1500 RPM for 3 minutes and the supernatants were carefully removed and analyzed or stored at -20°C for later analysis. […]
For the competition radioimmunoassay, a 50 µl aliquot of each release supernatant was mixed with 150 µl of histamine release buffer (supplied with the kit from AMAC). […] The solutions were aspirated from the tubes and the radioactivity bound to the tube was measured on a gamma counter (Cobra 5005, Beckman, Inc.) for two minutes per tube. […]
Six or more 10-fold dilutions of Amb a I.1 starting at 10 µg/ml (approximately 0.66 µM) were analyzed. […]

The next data set can be described thus: peptide solubility. The class given is physicochemical. The settings on record: compared among Amb 2-18.1, Amb2-19.1, Amb2-20.1 and Amb2-21.1. The source says: Peptides Amb 2-18.1 (SEQ ID NO:126), Amb2-19.1 (SEQ ID NO:127), Amb2-20.1 (SEQ ID NO:128) and Amb2-21.1 (SEQ ID NO:129) correspond to different lengths of the original peptide which were synthesized (including the serine substitution at position 212) and analyzed to determine solubility. […] Thus, substitutions and/or amino acid additions to this peptide were made in order to further increase the solubility while maintaining T cell reactivity. For example, in peptides Amb2-22.1 (SEQ ID NO:130) and Amb2-23.1 (SEQ ID NO:131) isoleucine at position 201 was substituted with glutamic acid (Amb2-22.1) or lysine (Amb2-23.1) to lower the pI of the resulting peptide and avoid precipitation of the peptide at physiological pH. Similarly, the following peptides were also synthesized with various substitutions or additions designed to decrease the pI and increase the hydrophilicity of the peptide, each is shown in Figure 25: Amb2-26.1 (SEQ ID NO:132); Amb2-28.1 (SEQ ID NO:133); Amb2-30.1 (SEQ ID NO:134); Amb2-32.1 (SEQ ID NO:135); Amb2-33.1 (SEQ ID NO:136); Amb2-34.1 (SEQ ID NO:137); Amb2-35.1 (SEQ ID NO:138); Amb2-36.1 (SEQ ID NO:139); Amb2-37.1 (SEQ ID NO:140); and Amb2-38.1 (SEQ ID NO:141).

On to KGTVGGKDGDIYTVTSELDDDVAN [AMB 1-2.1], for which the “# patients” value in data set [1] (patients with toxicity (proliferation less than half of media control) / patients tested) was 3/46. The “(%)patients” value in data set [1] (percent of patients with toxicity (proliferation less than half of media control)) is recorded as 7%. In addition, in data set [1] (toxicity at 5 µg/ml and 50 µg/ml peptide, fraction of patients with toxicity), the both is on record as 0. Besides, the low dose only in data set [1] (toxicity only at 5 µg/ml peptide, fraction of patients with toxicity) is on record as 2/3. For the same sequence, the high dose only in data set [1] (toxicity only at 50 µg/ml peptide, fraction of patients with toxicity) was 1/3. Also, the histamine release result in data set [2] is reported as “no discernible histamine release”.
SISGSSQIWIDHSSLSKS [AMB2-19.1]: the solubility entry in the data set “peptide solubility” is reported as “most soluble”.
